Measurements from patent US10195156B2, “Compounds and compositions for intracellular delivery of agents” (ModernaTX, Inc., priority 2015, dated 2019).

Legend:
[1] = pKa of nanoparticle compositions; assay type: physicochemical
[2] = test system: IL-6; assay: Cytokine production induced by sample formulations: IL-6; assay type: in vivo; settings: mice, i.v., 0.5 mpk, 6 hours; for IL-6: in pg/mL (unit assumed)
Text: (§1) The introduction of foreign material into a mammalian body induces an innate immune response that promotes cytokine production. Such immune responses to, for example, nanoparticle compositions including therapeutic and/or prophylactic agents, are undesirable. The induction of certain cytokines is thus measured to evaluate the […] of nanoparticle compositions. The concentrations of various cytokines in mice upon intravenous administration of nanoparticle compositions presented in Tables 1, 1a, 17-1, 19-1, 20-1 and 21-1 at a dosage of 0.5 mpk was measured at 6 hours. The standard MC3 formulation and a PBS control were also tested.

[3] = Encapsulation efficiency of RNA (QUANT-IT RIBOGREEN RNA assay); assay type: physicochemical; settings: for encapsulation efficiency, rank within the named table (in words): comparison amongst compositions
Method in brief: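 RiboGreen fluorescence (ex ~480, em ~520 nm) measured after 15 min at 37 °C on samples at ~5 μg/mL in TE, pH 7.5, ± 2% Triton X-100 solution. After blank subtraction, free RNA is given as intact-sample signal divided by disrupted-sample signal.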

[4] = test system: modified luciferase expression; assay: Expression of Luc in different organs (liver, lung, spleen, femur) 6 hours after intravenous administration; assay type: in vivo; settings: i.v., 0.5 mpk
Protocol: The efficacy of the nanoparticle compositions presented in Tables 1, 1a, 17-1, 19-1, 20-1 and 21-1 was further evaluated by measuring the expression of modified luciferase in the liver, lung, spleen, and femur upon administration of a given composition. Formulations were administered intravenously to mice (n=3) at a dosage of 0.5 mpk and bioluminescence measured after 6 hours. The standard MC3 formulation and a PBS control were also tested.

[5] = Particle size and polydispersity index of nanoparticle compositions (Zetasizer Nano ZS); assay type: physicochemical; settings: for particle size, rank within the named table (in words): comparison amongst compositions
Method in brief: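 Zetasizer Nano ZS; samples in 1×PBS; read-out: particle size plus polydispersity index.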

[6] = test system: IP-10; assay: Cytokine production induced by sample formulations: IP-10; assay type: in vivo; settings: mice, i.v., 0.5 mpk, 6 hours; for IP-10: in pg/mL (unit assumed)
Text: as §1

[7] = test system: luciferase (Luc) mRNA expression; assay: Expression of Luc induced by sample formulations, whole-body bioluminescence after intravenous administration; assay type: in vivo; settings: mice, i.v., 0.5 mg/kg
Method in brief: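 Read-out is whole-body bioluminescence at 3, 6 and 24 h after a single intravenous dose of 0.5 mg/kg Luc mRNA in nanoparticle formulations. Groups of n=6 mice; PBS and standard MC3 formulation as references.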

[8] = Table 1, rows without footnote mark
[9] = Table 1, rows without footnote mark (lipid:DOPE:cholesterol:PEG-DMG 40:20:38.5:1.5, Luc mRNA; MC3 standard formulation)

CCCCC/C=C\C/C=C\CCCCCCCCN(CCCCCCCC/C=C\C/C=C\CCCCC)CCOC [Compound 17-9, (9Z,12Z)—N-(2-Methoxyethyl)-N-((9Z,12Z)-octadeca-9,12-dien-1-yl)octadeca-9,12-dien-1-amine]
pKa ([1]; Table 17-1): 4.93 | IL-6 ([2]; Table 17-4): 35.2 | EE (%) ([3]; Table 17-1): 95.0% | Total Flux Femur ([4]; Table 17-3, mice): 2.29E+04 | Total Flux Liver ([4]; Table 17-3, mice): 1.39E+06 | Total Flux Lung ([4]; Table 17-3, mice): 1.40E+04 | Total Flux Spleen ([4]; Table 17-3, mice): 3.72E+05 | PDI ([5]; Table 17-1): 0.138 | Size (nm) ([5]; Table 17-1): 87.1 nm | IP-10 ([6]; Table 17-4): 112 | Total Flux 3 hours ([7]; Table 17-2, 3 hours): 6.87E+06 | Total Flux 6 hours ([7]; Table 17-2): 9.97E+06 | Total Flux 24 hours ([7]; Table 17-2): 3.43E+05

CCCCCCCCCN(CCO)CCCCCCCCC [Compound 17-10, 2-(Dinonylamino)ethan-1-ol]
pKa ([1]; Table 17-1): 2.85 | IL-6 ([2]; Table 17-4): 7.33 | IL-6 induction, rank within the named table (in words) [2]: lowest IL-6 levels | EE (%) ([3]; Table 17-1): 30.3% | encapsulation efficiency, rank within the named table (in words) [3]: did not encapsulate RNA with high efficiency | Total Flux Liver ([4]; Table 17-3, mice): 2.00E+05 | Total Flux Lung ([4]; Table 17-3, mice): 2.52E+04 | Total Flux Spleen ([4]; Table 17-3, mice): 1.74E+04 | PDI ([5]; Table 17-1): 0.239 | Size (nm) ([5]; Table 17-1): 165.0 nm | particle size, rank within the named table (in words) [5]: largest particles | IP-10 ([6]; Table 17-4): 243 | Total Flux 3 hours ([7]; Table 17-2, 3 hours): 6.61E+05 | Total Flux 6 hours ([7]; Table 17-2): 1.16E+06 | Total Flux 24 hours ([7]; Table 17-2): 4.06E+05

CCCCCCCCCCCCN(CCCO)CCCCCCCCCCCC [Compound 17-12, 3-(Didodecylamino)propan-1-ol]
pKa ([1]; Table 17-1): 6.83 | IL-6 ([2]; Table 17-4): 83.1 | EE (%) ([3]; Table 17-1): 95.04% | Total Flux Liver ([4]; Table 17-3, mice): 4.94E+05 | Total Flux Lung ([4]; Table 17-3, mice): 4.89E+04 | Total Flux Spleen ([4]; Table 17-3, mice): 7.81E+04 | PDI ([5]; Table 17-1): 0.148 | Size (nm) ([5]; Table 17-1): 76.1 nm | particle size, rank within the named table (in words) [5]: smallest particles | IP-10 ([6]; Table 17-4): 148 | Total Flux 3 hours ([7]; Table 17-2, 3 hours): 2.94E+06 | Total Flux 6 hours ([7]; Table 17-2): 2.54E+06 | Total Flux 24 hours ([7]; Table 17-2): 4.66E+05

CCCCCCCCCCCCN(CCCCO)CCCCCCCCCCCC [Compound 17-13, 4-(Didodecylamino)butan-1-ol]
pKa ([1]; Table 17-1): 6.89 | IL-6 ([2]; Table 17-4): 84.3 | EE (%) ([3]; Table 17-1): 89.22% | Total Flux Liver ([4]; Table 17-3, mice): 3.56E+05 | Total Flux Lung ([4]; Table 17-3, mice): 4.66E+04 | Total Flux Spleen ([4]; Table 17-3, mice): 1.90E+05 | PDI ([5]; Table 17-1): 0.176 | Size (nm) ([5]; Table 17-1): 90.4 nm | IP-10 ([6]; Table 17-4): 222 | Total Flux 3 hours ([7]; Table 17-2, 3 hours): 1.10E+06 | Total Flux 6 hours ([7]; Table 17-2): 1.80E+06 | Total Flux 24 hours ([7]; Table 17-2): 7.95E+05

CCCCCCCCCN(CCCCCCCCC)CCN(CCCCCCCCC)CCN1CCN(CCN(CCCCCCCCC)CCCCCCCCC)CC1 [Compound 18, N^1-(2-(4-(2-(Dinonylamino)ethyl)piperazin-1-yl)ethyl)-N^1,N^2,N^2-trinonylethane-1,2-diamine]
pKa [1, 8]: 6.17 | IL-6 ([2]; Table 4): 263 | EE (%) [3, 8]: 98.4% | Total Flux Femur ([4]; Table 3, mice): 3.31E+06 | Total Flux Liver ([4]; Table 3, mice): 3.91E+09 | Total Flux Lung ([4]; Table 3, mice): 1.87E+07 | Total Flux Spleen ([4]; Table 3, mice): 1.60E+07 | PDI [5, 8]: 0.120 | Size (nm) [5, 9]: 76.7 nm | IP-10 ([6]; Table 4): 655 | Total Flux 3 hours ([7]; Table 2, 3 hours): 2.13E+10 | Total Flux 6 hours ([7]; Table 2): 1.76E+10 | Total Flux 24 hours ([7]; Table 2): 7.00E+08 | total flux after 3 hours, rank within the named table (in words) ([7]; 3 hours): highest flux after 3 hours

CCCCCCCCCCCCN(CCCCCCCCCCCC)CCN1CCN(CCN(CCCCCCCCC)CCN(CCCCCCCCC)CCCCCCCCC)CC1 [Compound 19, N^1-(2-(4-(2-(Didodecylamino)ethyl)piperazin-1-yl)ethyl)-N^1,N^2,N^2-trinonylethane-1,2-diamine]
pKa [1, 8]: 6.29 | IL-6 ([2]; Table 4): 70 | EE (%) [3, 8]: 97.2% | Total Flux Femur ([4]; Table 3, mice): 2.75E+06 | Total Flux Liver ([4]; Table 3, mice): 1.89E+09 | Total Flux Lung ([4]; Table 3, mice): 2.27E+06 | Total Flux Spleen ([4]; Table 3, mice): 8.28E+06 | PDI [5, 8]: 0.100 | Size (nm) [5, 9]: 76.1 nm | IP-10 ([6]; Table 4): 2326 | Total Flux 3 hours ([7]; Table 2, 3 hours): 1.06E+10 | Total Flux 6 hours ([7]; Table 2): 6.52E+09 | Total Flux 24 hours ([7]; Table 2): 2.65E+09

CCCCCCCCCN(CCCCCCCCC)CCN1CCNCC1 [Compound 19-1, N-Nonyl-N-(2-(piperazin-1-yl)ethyl)nonan-1-amine]
pKa ([1]; Table 19-1): 6.76 | IL-6 ([2]; Table 19-4): 144.4 | EE (%) ([3]; Table 19-1): 83.4% | Total Flux Liver ([4]; Table 19-3, mice): 8.53E+05 | Total Flux Lung ([4]; Table 19-3, mice): 1.06E+04 | Total Flux Spleen ([4]; Table 19-3, mice): 1.58E+04 | PDI ([5]; Table 19-1): 0.071 | Size (nm) ([5]; Table 19-1): 98.0 nm | IP-10 ([6]; Table 19-4): 51.1 | IP-10 induction, rank or comparison with IL-6 (in words) [6]: lowest IP-10 expression | Total Flux 3 hours ([7]; Table 19-2, 3 hours): 6.77E+05 | Total Flux 6 hours ([7]; Table 19-2): 1.85E+06 | Total Flux 24 hours ([7]; Table 19-2): 2.75E+05

CCCCC/C=C\C/C=C\CCCCCCCCN(CCCCCCCC/C=C\C/C=C\CCCCC)CCN1CCNCC1 [Compound 19-3, (9Z,12Z)—N-((9Z,12Z)—Octadeca-9,12-dien-1-yl)-N-(2-(piperazin-1-yl)ethyl)octadeca-9,12-dien-1-amine]
pKa ([1]; Table 19-1): 7.24 | IL-6 ([2]; Table 19-4): 5.4 | IL-6 induction, rank within the named table (in words) [2]: lowest IL-6 expression | EE (%) ([3]; Table 19-1): 99.7% | encapsulation efficiency, rank within the named table (in words) [3]: highest encapsulation efficiency | Total Flux Liver ([4]; Table 19-3, mice): 2.65E+05 | Total Flux Lung ([4]; Table 19-3, mice): 3.00E+04 | Total Flux Spleen ([4]; Table 19-3, mice): 2.55E+05 | PDI ([5]; Table 19-1): 0.076 | Size (nm) ([5]; Table 19-1): 47.9 nm | particle size, rank within the named table (in words) [5]: smallest particles | IP-10 ([6]; Table 19-4): 177.5 | Total Flux 3 hours ([7]; Table 19-2, 3 hours): 1.69E+06 | Total Flux 6 hours ([7]; Table 19-2): 1.21E+06 | Total Flux 24 hours ([7]; Table 19-2): 3.39E+05

CCCCCCCCCCCCN(CCCCCCCCCCCC)CCN1CCN(C)CC1 [Compound 19-4, N-Dodecyl-N-(2-(4-methylpiperazin-1-yl)ethyl)dodecan-1-amine]
pKa ([1]; Table 19-1): 7.09 | IL-6 ([2]; Table 19-4): 129.2 | EE (%) ([3]; Table 19-1): 95.2% | Total Flux Liver ([4]; Table 19-3, mice): 1.46E+05 | Total Flux Lung ([4]; Table 19-3, mice): 4.49E+04 | Total Flux Spleen ([4]; Table 19-3, mice): 3.69E+04 | PDI ([5]; Table 19-1): 0.071 | Size (nm) ([5]; Table 19-1): 111.4 nm | IP-10 ([6]; Table 19-4): 430.9 | IP-10 induction, rank or comparison with IL-6 (in words) [6]: highest IP-10 expression | Total Flux 3 hours ([7]; Table 19-2, 3 hours): 6.61E+05 | Total Flux 6 hours ([7]; Table 19-2): 4.75E+05 | Total Flux 24 hours ([7]; Table 19-2): 3.44E+05
